# Measurements as given in article PMC8505397, “Development of peptides targeting receptor binding site of the envelope glycoprotein to contain the West Nile virus infection” (Scientific Reports, 2021).
# “And” between values parts separate entries of the source, which are not always exact repeats. Identical values can stand only once. Like-named read-outs stand apart in the source and are kept apart here.
# What was measured:
# [1] = target: T1, interaction between rDIII and proteins of hBMECs (West Nile virus, UniProt P06935); test: Blocking of interaction between rDIII and proteins of hBMECs by peptides (ELISA); assay type: binding, West Nile virus / human
# T1 construct: rDIII – recombinant domain III; made in house; host or cells: E. coli M15
# T1 sequence (P06935 584-692 limits assumed): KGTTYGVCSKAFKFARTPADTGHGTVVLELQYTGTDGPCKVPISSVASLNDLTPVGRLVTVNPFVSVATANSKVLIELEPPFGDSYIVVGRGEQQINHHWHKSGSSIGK
# Description: First, concentration-dependent ELISA and Western blot were performed to get the minimum concentration of rDIII required to show its interaction with hBMECs proteins. Details are presented in Supplementary Method S12 and Supplementary Method S13. Subsequently, the ability of 7-mer and 12-mer peptides to block the interaction between rDIII and proteins of hBMECs was tested. A tenfold molar excess of peptides was incubated with rDIII for 1 h at room temperature. Such pre-incubated rDIII was subsequently used in the assays. Details of both methods are described in Supplementary Method S12 and Supplementary Method S13. […]
# Blocking of interaction between rDIII and proteins of hBMECs by peptides (ELISA). First, different concentrations of rDIII were tested to get the minimum concentration of rDIII required to show the interaction with hBMECs proteins. Protein extract of hBMECs (4 μg/well) diluted in coating buffer (0.5 M Na2CO3, 0.5 M NaHCO3; pH 9.5) was incubated in the microtiter wells for overnight at 4°C. Unbound hBMECs proteins were washed with PBS (pH 7.3) containing 0.05% Tween 20 (0.05% PBST) and non-specific binding sites were blocked with 0.5% BSA in 0.05% PBST. rDIII at different concentrations (5 µg, 2.5 µg, 2 µg, 1 µg, 500 […]
# ng, 250 ng, 125 ng, and 62.5 ng) diluted in 0.05% PBST was added into wells and incubated for 3 h at room temperature and constant shaking. Wells were washed 3 times with 0.05% PBST and incubated with HisProbe-HRP conjugate (1:5,000 dilution in 0.1% BSA in 0.05% PBST; Thermo Fisher Scientific) for 30 min at room temperature and constant shaking. […] The reaction was stopped after 25 min with 2 M H2SO4 and the absorbance was measured at 450 nm. […]
# After blocking, the wells were washed 3 times with 0.05% PBST, pre-incubated rDIII was added and incubated for 3 h at room temperature with constant shaking. […] The reaction was stopped after 25 min with 2 M H2SO4 and the absorbance was measured at 450 nm. hBMECs proteins incubated with untreated rDIII were used as a positive control. […]
# [2] = test system: WNV virus like particles (VLP) that possess C, M, and E proteins; details: for luciferase luminescence, original data (single wells, duplicates): Avg.VC 555022 / Avg.CC 1551.33 (plate 1), 522383 / 1614.33 (plate 2)
# hBMECs = test: Peptide cytotoxicity assay (XTT); assay type: cell-based, human; details: 1 μM, 2 μM, 4 μM and 6 μM; 24 h
# Description: The toxicity of peptides was determined by the XTT test (AppliChem, USA) as per the manufacturer’s instructions. Details are presented in Supplementary Method S15. […]
# Cytotoxicity assay. hBMECs were cultured in 96-well TPP tissue culture plates (Sigma) in supplemented EBM-2 medium (Lonza) to obtain ~70% confluency (as described in Supplementary Method S1). The peptides in concentrations of 1 µM, 2 µM, 4 µM, and 6 µM (diluted in 100 µL of EBM-2 medium supplemented only with 10% FBS, 10 mM HEPES and 1 ng/mL bFGF; Sigma) were added and incubated for 24 h at 37°C in a humid atmosphere of 5% CO2. Untreated cells served as a negative control (100% viability). For positive control, cells treated with 0.01% Triton X-100 were used. After incubation, the mixture of XTT and activation reagent (5:0.1 [v/v], 50 µL each well) was added to each well and incubated for an additional 3 h at 37°C in a humid atmosphere of 5% CO2. The absorbance was measured at 450 nm. The assay was performed in replicates. The viability (%) of endothelial cells was calculated using the formula: Cell viability (%) = [(A - xA ) × 100] / (xA -
smiles,measurement,setting,value
"CC[C@H](C)[C@@H]1NC(=O)[C@@H](NC(=O)[C@H](C)N)CSSC[C@@H](C(=O)NCC(=O)NCC(=O)NCC(=O)N[C@@H](CO)C(=O)O)NC(=O)[C@H](C)NC(=O)[C@H](CCCNC(=N)N)NC(=O)[C@H]([C@@H](C)O)NC(=O)[C@H](CO)NC(=O)[C@H](CO)NC(=O)[C@H](Cc2c[nH]cn2)NC1=O [CP4, CIHSSTRAC]","A450, rDIII binding to hBMECs proteins after pre-incubation with peptide","[1]; pre-incubated with tenfold molar excess (1.5 nM) of peptide, positive control A450 = 1.064",0.346
same,inhibition of the interaction between rDIII and hBMECs proteins,"[1]; rDIII 0.15 nM pre-incubated with tenfold molar excess (1.5 nM) of peptide, ELISA",67%
same,EC50,[2]; 48 h,17 nM
same,EC50 (neutralization of VLP) as concentration,[2]; 48 h,0.1194 µg/mL
same,"luciferase luminescence, original data (single wells, duplicates)",[2]; dilution 90,125654 and 100462
same,Avg. inhibition of VLP infection,"[2]; dilution of peptide 30, 666 nanograms of peptide / well",95%
same,Avg. inhibition of VLP infection,"[2]; dilution of peptide 90, 222 nanograms of peptide / well",80%
same,Avg. inhibition of VLP infection,"[2]; dilution of peptide 270, 74 nanograms of peptide / well",74%
same,Avg. inhibition of VLP infection,"[2]; dilution of peptide 810, 24.7 nanograms of peptide / well",57%
same,Avg. inhibition of VLP infection,"[2]; dilution of peptide 2430, 8.2 nanograms of peptide / well",33%
same,Avg. inhibition of VLP infection,"[2]; dilution of peptide 7290, 2.7 nanograms of peptide / well",20%
same,"luciferase luminescence, original data (single wells, duplicates)","[2]; listed as B, dilution 30",31234 and 31350
same,"luciferase luminescence, original data (single wells, duplicates)","[2]; listed as D, dilution 270",151785 and 142766
same,"luciferase luminescence, original data (single wells, duplicates)","[2]; listed as E, dilution 810",243092 and 236564
same,"luciferase luminescence, original data (single wells, duplicates)","[2]; listed as F, dilution 2430",368265 and 376779
same,"luciferase luminescence, original data (single wells, duplicates)","[2]; listed as G, dilution 7290",424174 and 466082
same,half maximal effective concentration in nanograms/ml,[2]; sigmoidal 4PL interpolation from EC50 dilution,119.48 nanograms/ml
same,half maximal effective concentration in nanograms/well (150 ul),"[2]; well volume 150 ul, sigmoidal 4PL interpolation from EC50 dilution",17.94 nanograms/well
same,cytotoxic effect on hBMECs (XTT),hBMECs,None of the peptides was toxic
